In brackets after ≈: the same amount, converted by molar mass.
Experiments:
ACA acylase [1] = assay: Substrate specificity, test 3: peptides and N-acyl phenylalanines, amino acids detected with amino acid analyzer; type: biochemical, Brevibacterium spec.; conditions: for Activity / Relative Activity: 50 mM substrate, pH 7.5, 30° C.; for Activity: 0.1 U/ml ACA acylase; for Relative Activity: relative to α-acetylamino cinnamic acid = 100%
Method: Other substrates used were N-acetyl-L-phenylalanine, N-methoxycarbonyl-D,L-phenylalanine and various peptides. The test batch contained in these instances:
0.1 M potassium phosphate buffer (pH 7.5)
(§1) The batches (1 ml altogether) were agitated (30° C.) and samples were taken at different times. The amino acids produced by the acylase action were quantitatively detected with the aid of an amino acid analyzer. The activity of the enzymes is also indicated in this instance in international units-an activity of 1 U corresponds to the formation of 1 μmole amino acid per minute. The activities measured with the 3 test batches are listed in column 2 of Table 6 in mU/ml. For the determination of the relative activity (column 3 of Table 6), the activity of the α-acetylamino cinnamic acid as substrate was set equal to 100%.

ACA acylase [2] = assay: Influences of inhibitors and activators on ACA acylase activity (standard conditions, coupled test with D-2-hydroxy-4-methylpentanoic acid dehydrogenase); type: biochemical, Brevibacterium spec.
Method: 0.1 M phosphate buffer for pH 7.5
(§2) limiting amounts of ACA acylase.
(Deviation: The tests with bivalent metal ions were performed in 0.1M tris/HCl buffer for pH 8.0.)

[3] = at 25° C.; cited from earlier work
ACA acylase [4] = assay: Substrate specificity, test 2: α-acetylamino acrylic acid, photometric test coupled with L-alanine dehydrogenase; type: biochemical, Brevibacterium spec.
Method: 2. Test with α-acetylamino acrylic acid:
50 mM α-acetyl amino acrylic acid
1 U/ml L--alanine dehydrogenase
The activity was measured in an analogous manner (by a photometric test at 340 nm) (1 μmole NADH decrease would correspond to 1 μmole formation of alanine).
as §1

ACA acylase [5] = assay: Dependency of ACA acylase activity on substrate concentration, coupled with D-2-hydroxy-4-methylpentanoic acid dehydrogenase (pH 7.5); type: biochemical, Brevibacterium spec.
Method: 0.1 M phosphate buffer (pH 7.5)
0.8 U D--2-hydroxy-4-methylpentanoic acid dehydrogenase
as §2
The α-acetylamino cinnamic acid concentration was varied within a range of 0.1-18 mM. […] The KM value for α-acetylamino cinnamic acid is at 0.45 mM.

ACA acylase [6] = assay: Substrate specificity, test 1: α-acetylamino cinnamic acid, photometric test coupled with L-phenylalanine dehydrogenase; type: biochemical, Brevibacterium spec.
Method: In a series of parallel batches, the substrate α-acetylamino cinnamic acid was replaced by other compounds and tested to see to what extent the enzyme accepts other substrates. The following test batches were used depending on the substrate used:
1. Test with α-acetylamino cinnamic acid as substrate:
50 mM α-acetylamino cinnamic acid
The activity was measured (at 340 nm) by a photometric test as described in Example 1.
as §1

ACA acylase [7] = assay: Dependency of ACA acylase activity on substrate concentration, coupled with L-phenylalanine dehydrogenase (pH 8.5); type: biochemical, Brevibacterium spec.
Method: 0.7 mM ammonium chloride/ammonia buffer (pH 8.5)
0.5 U L--phenylalanine dehydrogenase
as §2
The α-acetylamino cinnamic acid concentration was varied within a range of 1-36 mM. […] The KM value for α-acetylamino cinnamic acid is 3.9 mM.

[8] = bivalent metal ion, concentration 1 nM (so in the source), 0.1M tris/HCl buffer pH 8.0
[9] = bivalent metal ion, concentration 10 nM (so in the source), 0.1M tris/HCl buffer pH 8.0
[10] = reagent concentration 1 nM (so in the source), 0.1 M phosphate buffer pH 7.5, 30° C.
[11] = reagent concentration 10 nM (so in the source), 0.1 M phosphate buffer pH 7.5, 30° C.

Molecule: gly-D-phe
- Activity (ACA acylase [1]): 0 mU.ml^-1
- Relative Activity (ACA acylase [1]): 0%

Molecule: L--leu-L--phe
- Activity (ACA acylase [1]): 102 mU.ml^-1
- Relative Activity (ACA acylase [1]): 82%

Molecule: L--ala-L--phe
- Activity (ACA acylase [1]): 105 mU.ml^-1
- Relative Activity (ACA acylase [1]): 84%

Molecule: gly-gly-L--phe
- Activity (ACA acylase [1]): 0 mU.ml^-1
- Relative Activity (ACA acylase [1]): 0%

Molecule: [Cl][Hg].[Cl][Hg] [Hg2 Cl2]
- Influence on the enzyme (in words) (ACA acylase [2]; summary of properties): inhibiting action

Molecule: [Ca+2].[Cl-].[Cl-] [CaCl2]
- Residual Activity (ACA acylase [2]; [8]): 99%
- Residual Activity (ACA acylase [2]; [9]): 99%

Molecule: [Cl][Hg][Cl] [HgCl2]
- Residual Activity (ACA acylase [2]; [8]): 51%
- Residual Activity (ACA acylase [2]; [9]): 0%

Molecule: L--phe-L--phe
- Activity (ACA acylase [1]): 41 mU.ml^-1
- Relative Activity (ACA acylase [1]): 33%

Molecule: [Cl][Mn][Cl] [MnCl2]
- Residual Activity (ACA acylase [2]; [8]): 63%

Molecule: N[C@@H](Cc1ccccc1)C(=O)O [Phe, L-phenylalanine]
- solubility in H2 O [3]: 180000 µM (≈ 29.7 mg/mL)

Molecule: [Cl-].[Cl-].[Mg+2] [MgCl2]
- Residual Activity (ACA acylase [2]; [8]): 100%
- Residual Activity (ACA acylase [2]; [9]): 100%

Molecule: L--asp-L--phe
- Activity (ACA acylase [1]): 38 mU.ml^-1
- Relative Activity (ACA acylase [1]): 30%

Molecule: L--ala-L--trp
- Activity (ACA acylase [1]): 66 mU.ml^-1
- Relative Activity (ACA acylase [1]): 53%

Molecule: [Cl][Cd][Cl] [CdCl2]
- Residual Activity (ACA acylase [2]; [8]): 72%
- Residual Activity (ACA acylase [2]; [9]): 29%
- Influence on the enzyme (in words) (ACA acylase [2]; summary of properties): inhibiting action

Molecule: [Cl][Ni][Cl] [NiCl2]
- Residual Activity (ACA acylase [2]; [8]): 83%
- Residual Activity (ACA acylase [2]; [9]): 53%

Molecule: L--his-L--phe
- Activity (ACA acylase [1]): 44 mU.ml^-1
- Relative Activity (ACA acylase [1]): 35%

Molecule: COC(=O)NC(Cc1ccccc1)C(=O)O (racemic) [N--methoxycarbonyl D,L--phenylalanine, N-methoxycarbonyl-D,L-phenylalanine]
- Activity (ACA acylase [1]): 0 mU.ml^-1
- Relative Activity (ACA acylase [1]): 0%

Molecule: c1cnc2c(c1)ccc1cccnc12 [o-phenanthroline]
- Residual Activity (ACA acylase [2]; [10]): 72%
- Residual Activity (ACA acylase [2]; [11]): 45%
- Influence on the enzyme (in words) (ACA acylase [2]; summary of properties): inhibiting action

Molecule: p-mercuric benzoate
- Residual Activity (ACA acylase [2]; [10]): 41%
- Residual Activity (ACA acylase [2]; [11]): 3%
- Influence on the enzyme (in words) (ACA acylase [2]; summary of properties): inhibiting action

Molecule: c1ccc(-c2ccccn2)nc1 [2,2-dipyridyl]
- Residual Activity (ACA acylase [2]; [10]): 97%
- Residual Activity (ACA acylase [2]; [11]): 69%

Molecule: gly-L--phe
- Activity (ACA acylase [1]): 40 mU.ml^-1
- Relative Activity (ACA acylase [1]): 32%

Molecule: N[C@@H](CCC(=O)N[C@@H](CS)C(=O)NCC(=O)O)C(=O)O [red. glutathione]
- Residual Activity (ACA acylase [2]; [10]): 102%
- Residual Activity (ACA acylase [2]; [11]): 81%

Molecule: C=C(NC(C)=O)C(=O)O [α-acetylamino acrylic acid]
- Activity (ACA acylase [4]; 50 mM substrate, 0.1 U/ml ACA acylase, pH 8.0): 0 mU.ml^-1
- Relative Activity (ACA acylase [4]; relative to α-acetylamino cinnamic acid = 100%, 50 mM substrate, pH 8.0): 0%
- Substrate specificity: hydrolysis by the enzyme (in words) (ACA acylase [4]; summary of properties): not

Molecule: L--leu-L--tyr
- Activity (ACA acylase [1]): 109 mU.ml^-1
- Relative Activity (ACA acylase [1]): 87%

Molecule: L--ser-L--phe
- Activity (ACA acylase [1]): 36 mU.ml^-1
- Relative Activity (ACA acylase [1]): 29%

Molecule: OCCS [2-mercaptoethanol]
- Residual Activity (ACA acylase [2]; [10]): 100%
- Residual Activity (ACA acylase [2]; [11]): 100%

Molecule: O=C(O)CN(CCN(CC(=O)O)CC(=O)O)CC(=O)O [EDTA]
- Residual Activity (ACA acylase [2]; [10]): 111%
- Residual Activity (ACA acylase [2]; [11]): 102%

Molecule: [Cl-].[Cl-].[Zn+2] [ZnCl2]
- Residual Activity (ACA acylase [2]; [8]): 86%
- Residual Activity (ACA acylase [2]; [9]): 34%

Molecule: L--ala-L--his
- Activity (ACA acylase [1]): 43 mU.ml^-1
- Relative Activity (ACA acylase [1]): 34%

Molecule: CC(=O)NC(=Cc1ccccc1)C(=O)O [α-acetylamino cinnamic acid]
- Km (ACA acylase [5]; pH 7.5): 450 µM
- Km (ACA acylase [5]; pH 7.5, coupled with D-2-hydroxy-4-methylpentanoic acid dehydrogenase): 450 µM
- Substrate concentration at which the optimum reaction speed is achieved (ACA acylase [5]; pH 7.5, concentration varied 0.1-18 mM): 5 mM
- Activity (ACA acylase [6]; 50 mM substrate, 0.1 U/ml ACA acylase, pH 9.2): 125 mU.ml^-1
- Substrate specificity: hydrolysis by the enzyme (in words) (ACA acylase [6]; summary of properties): hydrolyzes
- Relative Activity (ACA acylase [6]; α-acetylamino cinnamic acid set equal to 100%, 50 mM substrate, pH 9.2): 100%
- Km (ACA acylase [7]; pH 8.5, coupled with L-phenylalanine dehydrogenase): 3900 µM
- Substrate concentration at which the optimum reaction speed is achieved (ACA acylase [7]; pH 8.5, concentration varied 1-36 mM): 16 mM

Molecule: CC(=O)N[C@@H](Cc1ccccc1)C(=O)O [N--acetyl-L--phenylalanine, N-acetyl-L-phenylalanine]
- Activity (ACA acylase [1]): 0 mU.ml^-1
- Relative Activity (ACA acylase [1]): 0%
- Substrate specificity: hydrolysis by the enzyme (in words) (ACA acylase [1]; summary of properties): not

Molecule: O[C@H](CS)[C@H](O)CS (racemic) [dithiothreitol]
- Influence on the enzyme (in words) (ACA acylase [2]; addition of 1 mmole): activates
- Residual Activity (ACA acylase [2]; [10]): 146%
- Residual Activity (ACA acylase [2]; [11]): 123%

Molecule: L--leu-L--trp
- Activity (ACA acylase [1]): 67 mU.ml^-1
- Relative Activity (ACA acylase [1]): 54%

Molecule: L--ala-L--tyr
- Activity (ACA acylase [1]): 78 mU.ml^-1
- Relative Activity (ACA acylase [1]): 62%
